Results on one compound are retold here after PMC6272399, “Anti-Proliferative Effect and Induction of Apoptosis in Androgen-Independent Human Prostate Cancer Cells by 1,5-Bis(2-hydroxyphenyl)-1,4-pentadiene-3-one” (Molecules, 2015).

In test [1] the test system is DU 145 cells. Description: BrdU cell proliferation assay, DU 145. It is filed as cell-based, human. The settings on record: DU 145, BrdU. The protocol:
The anti-proliferative effects of compound on treated cells, was measured using the BrdU cell proliferation assay kit (Roche Applied Science Diagnostics, Indianapolis, IN, USA) according to the manufacturer’s protocol. The assay was based on incorporation of BrdU during DNA synthesis in proliferating cells. Cells were plated at a concentration of 10^4 cells/mL in a 96-well microtiter plate and incubated overnight. The cells were treated with compounds and curcumin (concentrations ranging from 1.56 µM–100 µM) as positive control for 24, 48 and 72 h respectively. Then, BrdU labeling solution (5 µL, diluted by 1/100 in culture media) was added to each well and incubated for 2 h at 37 °C. The media was replaced with fix/denaturing solution (100 µL) and incubated for 30 min at room temperature. Then, the fix/denaturing solution was removed by tapping off and followed by addition of 50 µL anti-BrdU antibody (50 µL, diluted by 1/100 in dilution buffer) to each well and further incubated for another 90 min at room temperature. Next, the cells were washed 3 times with wash buffer and substrate solution (50 µL) was added to each well. The plate was left for 10 min at room temperature in the dark and the absorbance was measured at a wavelength of 370 nm with a reference wavelength of 492 nm using a micro-plate ELISA reader (Bio-Rad). The percentage of BrdU incorporation was determined based on the ratio of absorbance of sample treated-cells to absorbance of control (untreated cells/DMSO only) multiplied by 100.

Test [2] concerns androgen-dependent prostate cancer cells. More on the design: method as in PMID 21796654. The settings on record: cited from earlier work.
Test [3] deals with DU 145 cells. The test can be described thus: Free nucleosome detection (Cell Death Detection ELISA), DU 145. It is filed as cell-based, human. The settings on record: DU 145, 8.4 µM compared with 4.2 and 12.6 µM, all time points. The protocol: (§1) To confirm the presence of histone-bound DNA fragments (free nucleosomes) in the prostate cancer cells after the treatment of MS17, Cell Death Detection ELISA^PLUS kit (Roche Diagnostics) was used according to the manufacturer’s protocol. Cells were plated on a bottom flat tissue culture plates at a concentration of 10^5 cells per well and incubated for 24 h to allow the cells to adhere. After overnight incubation, MS17 at various concentrations (EC50, 2 × EC50, 3 × EC50) were added to a final volume of 100 µL per well and further incubated for 24, 48 and 72 h. The plate was centrifuged at 600 rpm at 4 °C for 10 min. The cell pellet containing the apoptotic bodies was resuspended in lysis buffer and incubated for 30 min at room temperature. […] The amount of nucleosomes retained by the POD in the immunocomplex, corresponding to the extent of apoptosis and necrosis, was determined with 2,2'-azinobis-3-ethyl-benzothiazoline-6-sulfonic acid (ABTS) as substrate using a micro-plate ELISA reader at a wavelength of 405/490 nm. The amount of enrichment of mono- and oligonucleosomes released into the cytoplasm was calculated using the following formula: Enrichment factor= Absorbance of sample/Absorbance of control
(ELISA stands for enzyme-linked immunosorbent assay.)

Test [4] has as its system WI-38 (human lung fibroblast cells). Description: MTT cytotoxicity assay, normal WI-38. The settings on record: normal cell line, 72 h treatment, mean ± SD, read-out: EC50 Values (µM) of Compounds on Cell Lines WI-38. It is filed as cell-based. The protocol: (§2) Cell viability was determined by the MTT [3-(4,5-dimethylthiazol-2-yl)-2,5-diphenyltetrazolium bromide] assay, as previously described by Mosmann with modifications. Briefly, cells were detached from the tissue culture flask and pelleted by centrifugation at 1000 rpm for 5 min. Then, the density of the viable cells was counted using a haemocytometer. Cells were then plated in a 96-well flat bottom micro-titer plate (Nunc) at a concentration of 10^4 cells/mL and incubated in a 5% CO2 incubator at 37 °C overnight to allow the cells to adhere to the bottom of the wells. After 24 h, the media was aspirated off and replaced with fresh media containing sample compounds (curcumin and curcumin analogues) of seven different concentrations ranging from 1.56 µM–100 µM and incubated at 37 °C, 5% CO2 for 72 h. Separately, the sample compounds were prepared in a stock solution of 50 mM in 100% dimethyl sulfoxide (DMSO, Molecular Biology Grade, Sigma-Aldrich, St. Louis, MO, USA) and diluted in the culture media to a working concentration of 200 µM. Curcumin, the parent compound which was used as the positive control was also prepared in the similar manner. A two-fold serial dilution was done for each sample in triplicates down the columns of the plate, yielding a final volume and concentration of 100 µL in 0.2% DMSO in each wells. Following treatment, 50 µL MTT solutions (0.5 mg/mL in PBS) was added to each well and incubated for another 4 h at 37 °C in a humidified 5% CO2 incubator. The supernatant was replaced with 100 µL of DMSO and the optical density (OD) was measured at 570/650 nm using a micro-plate ELISA reader (Bio-Rad Laboratories, Hercules, CA, USA). The percentage of viable cells was calculated based on the ratio of the corrected absorbance of sample-treated cells to the corrected absorbance of the control (0.2% DMSO-treated cells) multiplied by 100. The percentage of cell viability was determined as follows: % Cell viability= OD of treated cells /OD of control ×100
(§3) For each compound tested, the EC50 value was generated from the log dose-response curves for each cell line using the Graphpad Prism version 5.04 for Windows (Graphpad Software, La Jolla, CA, USA). […] Cytotoxicity of each tested compound is expressed as the EC50 value. Based on the EC50 values, selectivity index (SX) value was also determined. Selectivity index is a special parameter applied as a selectivity indicator of tested compounds towards cancer cells. The SX represents the ratio of EC50 value obtained in toxicity testing using the normal cell lines to the EC50 values of the toxicity testing of the cancer cells, and then multiplied by 100. All the compounds were assessed for their potential toxicity against normal, non-cancerous cells. […] The SX values were calculated using the following equation: SX = EC50 (normal cells)/EC50 (cancer cells) × 100

The test system of test [5] is PC-3 cells. The test can be described thus: Free nucleosome detection (Cell Death Detection ELISA), PC-3. In kind it is cell-based, human. Conditions: PC-3, 9.0 and 13.5 µM, 24, 48 and 72 h. As to the method:
as §1

For test [6], the system named is WRL 68 (human epithelial hepatocytes). Description: MTT cytotoxicity assay, normal WRL 68. It is filed as cell-based. The settings on record: WRL68, normal cell line, 72 h treatment, mean ± SD, read-out: EC50 Values (µM) of Compounds on Cell Lines WRL-68. The protocol:
as §2, §3
On the technique in general: Tetrazolium dyes change colour on reduction, which living cells bring about.

Test [7] deals with DU 145 cells. Description: MTT cytotoxicity (cell viability) assay, DU 145. In kind it is cell-based, human. As to the method:
as §2, §3

Consider `O=C(C=Cc1ccccc1O)C=Cc1ccccc1O` [MS17, 1,5-bis(2-hydroxyphenyl)-1,4-pentadiene-3-one], for which the “concentration from which anti-proliferative activity is significant” value in test [1] (24 h) is reported as 6.3 µM; in test [1] (48 h), 6.3 µM; in test [1] (72 h), 12.5 µM. In test [2], the anti-androgenic effect result is on record as “exert anti-androgenic effect”. For the same compound, the “nucleosomal fragments (enrichment factor)” value in test [3] and in test [5] was “significant increase in nucleosomal fragments” throughout. Further, the EC50 in test [4] is 5.2 ± 1.2 µM; in test [6] it was 5.5 ± 0.5 µM; in test [7] (Homo sapiens, DU-145, MTT, 72 h treatment, mean ± SD, three experiments, read-out: EC50 Values (µM) of Compounds on Cell Lines DU 145), 4.1 ± 0.8 µM. In test [7] (DU 145, MTT, vs untreated), the “dose from which decrease in cell viability is significant” value is given as 6.3 µM. Moreover, the “Selective index (SX) WI-38 vs DU 145” value in test [7] (SX = EC50 (WI-38)/EC50 (DU 145) × 100) is 126.3. In addition, the “Selective index (SX) WRL68 vs DU 145” value in test [7] (SX = EC50 (WRL68)/EC50 (DU 145) × 100) is listed as 134.3.

As usually defined, the EC50 is the concentration at which the effect is half-maximal.
